Legend:
Format in all cases: in vivo
[1] = system: Neotropical Brown Stink Bug (Euschistus heros (Fab)); assay: Test H: control of Neotropical Brown Stink Bug on sprayed green bean pieces; settings: sprayed at 250 ppm; 3rd instar nymphs; 5 days
Experimental: (§1) Test compounds were formulated using a solution containing 10% acetone, 90% water and 300 ppm Activator 90@ non-ionic surfactant (Loveland Products, Loveland, Colorado, USA). The formulated compounds were applied in 1 mL of liquid through an atomized nozzle positioned 1.27 cm (0.5 inches) above the top of each test unit. Test compounds were sprayed at the rates indicated, and each test was replicated three times.
For evaluating control of Neotropical Brown Stink Bug (Euschistus heros (Fab)) through contact and/or systemic means, the test unit consisted of a petri dish with two, ˜2 cm pieces of green bean inside.
Test compounds were formulated and sprayed at 250, 50 and 10 ppm. After spraying of the formulated test compound, the test units were allowed to dry for 1 h before they were post-infested with 10 3rd instar nymphs. A fine mesh screen was secured to the petri dish, the test units were held for 5 days in a growth chamber at 28° C. and 65% relative humidity. Each test unit was then visually assessed for insect mortality after five days.

[2] = system: silverleaf whitefly (Bemisia argentifolii (Bellows and Perring)); assay: Test F: control of silverleaf whitefly on sprayed soybean plant; settings: 288 h, pre-infested (oviposition), 12 days; for mortality at 250 ppm: sprayed at 250 ppm; for mortality at 50 ppm: sprayed at 50 ppm
Experimental: as §1
For evaluating control of silverleaf whitefly (Bemisia argentifolii (Bellows and Perring)) through contact and/or systemic means, each test unit consisted of a small open container with a 5-7 day old soybean plant inside. This was pre-infested by placing test units into cages containing adult whiteflies so that oviposition on the leaves could occur. The adults were removed from the plants with an air-blast nozzle, and the test units were capped. The test units were then stored 2 to 3 days before spraying.
Test compounds were formulated and sprayed at 250 and 50 ppm. After spraying, the test units were maintained in a growth chamber for 12 days at 23° C. and 70% relative humidity. Each test unit was then visually assessed for insect mortality.

[3] = system: Corn Planthopper (Peregrinus maidis (Ashmead)); assay: Test B: control of Corn Planthopper on sprayed corn plant; settings: 144 h, nymphs, 6 days; for mortality at 10 ppm: sprayed at 10 ppm; for mortality at 50 ppm: sprayed at 50 ppm; for mortality at 250 ppm: sprayed at 250 ppm
Experimental: as §1
For evaluating control of Corn Planthopper (Peregrinus maidis (Ashmead)) through contact and/or systemic means, the test unit consisted of a small open container with a 3-4-day-old corn (maize) plant inside. White sand was added to the top of the soil prior to application of the test compound.
Test compounds were formulated and sprayed at 250, 50 and 10 ppm. After spraying of the formulated test compound, the test units were allowed to dry for 1 h before they were post-infested with ˜15-20 nymphs (18-to-21-day-old). A black, screened cap was placed on the top of each test unit, and the test units were held for 6 days in a growth chamber at 22-24° C. and 50-70% relative humidity. Each test unit was then visually assessed for insect mortality.

[4] = system: cotton melon aphid (Aphis gossypii (Glover)); assay: Test E: control of cotton melon aphid on sprayed okra plant; settings: 144 h, pre-infested, 6 days; for mortality at 50 ppm: sprayed at 50 ppm; for mortality at 2 ppm: sprayed at 2 ppm; for mortality at 250 ppm: sprayed at 250 ppm
Experimental: as §1
For evaluating control of cotton melon aphid (Aphis gossypii (Glover)) through contact and/or systemic means, the test unit consisted of a small open container with a 5-day-old okra plant inside. This was pre-infested with 30-40 insects on a piece of leaf according to the cut-leaf method, and the soil of the test unit was covered with a layer of sand.
Test compounds were formulated and sprayed at 250, 50, 10 and 2 ppm. After spraying, the test units were maintained in a growth chamber for 6 days at 19° C. and 70% relative humidity. Each test unit was then visually assessed for insect mortality.

[5] = system: Green Peach Aphid (Myzus persicae (Sulzer)); assay: Test D: control of Green Peach Aphid on sprayed radish plant; settings: 144 h, pre-infested, 6 days; for mortality at 250 ppm: sprayed at 250 ppm; for mortality at 50 ppm: sprayed at 50 ppm
Experimental: as §1
For evaluating control of Green Peach Aphid (Myzus persicae (Sulzer)) through contact and/or systemic means, the test unit consisted of a small open container with a 12-15-day-old radish plant inside. Prior to compound application, each test unit was pre-infested by placing on a leaf of the test plant 30-40 aphids on a piece of leaf excised from a culture plant (cut-leaf method). The aphids moved onto the test plant as the leaf piece desiccated. After pre-infestation, the soil of the test unit was covered with a layer of sand.
Test compounds were formulated and sprayed at 250 and 50 ppm. After spraying of the formulated test compound, each test unit was allowed to dry for 1 hour and then a black, screened cap was placed on top. The test units were held for 6 days in a growth chamber at 19-21° C. and 50-70% relative humidity. Each test unit was then visually assessed for insect mortality.

[6] = system: Potato Leafhopper (Empoasca fabae (Harris)); assay: Test C: control of Potato Leafhopper on sprayed bean plant; settings: 144 h, adults, 6 days; for mortality at 250 ppm: sprayed at 250 ppm
Experimental: as §1
For evaluating control of Potato Leafhopper (Empoasca fabae (Harris)) through contact and/or systemic means, the test unit consisted of a small open container with a 5-6-day-old bean plant inside. White sand was added to the top of the soil, and one of the primary leaves was excised prior to application of the test compound.
Test compounds were formulated and sprayed at 250 and 50 ppm. After spraying of the formulated test compound, the test units were allowed to dry for 1 hour before they were post-infested with 5 potato leafhoppers (18-to-21-day-old adults). A black, screened cap was placed on the top of the test unit, and the test units were held for 6 days in a growth chamber at 20° C. and 70% relative humidity. Each test unit was then visually assessed for insect mortality.

SMILES | mortality at 250 ppm [2] [%] | mortality at 50 ppm [4] [%] | mortality at 250 ppm [5] [%] | mortality at 50 ppm [3] [%] | mortality at 250 ppm [3] [%] | further results
CCC#CCn1cc(-c2ccc(C)cc2)nn1 [Compound 18] |  |  |  |  |  | mortality [1]: at least 50%
CCC#CCn1nnc(-c2ccc(F)cc2)n1 [Compound 41, 5-(4-fluorophenyl)-2-(2-pentyn-1-yl)-2H-tetrazole] | ≥ 50 | ≥ 80 | ≥ 80 |  |  | mortality at 10 ppm [3]: ≥ 80%
CCC#CCn1nnc(-c2cc(F)cc(F)c2)n1 [Compound 65, 5-(3,5-difluorophenyl)-2-(2-pentyn-1-yl)-2H-tetrazole] | ≥ 50 |  |  | ≥ 80 |  | mortality at 2 ppm [4]: ≥ 80%; mortality at 50 ppm [5]: ≥ 80%
CCC#CCn1ncc(-c2ccc(C(F)(F)F)cc2)n1 [Compound 103, 2-(2-Pentyn-1-yl)-4-[4-(trifluoromethyl)phenyl]-2H-1,2,3-triazole] | ≥ 50 | ≥ 80 | ≥ 80 | ≥ 80 |  | mortality at 250 ppm [6]: ≥ 80%
CC(C)C#CCn1ncc(-c2ccc(C(F)(F)F)cc2)n1 [Compound 139] |  |  |  |  | ≥ 80 | mortality at 250 ppm [4]: ≥ 80%; mortality at 250 ppm [6]: ≥ 80%
CCC#CCn1ncc(-c2cncc(F)c2)n1 [Compound 155] |  | ≥ 80 | ≥ 80 | ≥ 80 |  | mortality at 250 ppm [6]: ≥ 80%
CCC#CCn1ncc(-c2ccc(Cl)nc2)n1 [Compound 157] | ≥ 50 | ≥ 80 | ≥ 80 | ≥ 80 |  | 
CCC#CCn1cc(-c2ccc(F)nc2)nn1 [Compound 158] |  |  |  |  |  | mortality at 250 ppm [4]: ≥ 80%; mortality at 50 ppm ([6]; sprayed at 50 ppm): ≥ 80%
CCC#CCn1ncc(-c2ccc(F)nc2)n1 [Compound 159, 2-Fluoro-5-[2-(2-pentyn-1-yl)-2H-1,2,3-triazol-4-yl]pyridine] |  | ≥ 80 |  | ≥ 80 |  | mortality at 250 ppm [6]: ≥ 80%
CCC#CCn1nnc(-c2ccc(Br)c(Cl)c2)n1 [Compound 164, 5-(4-Bromo-3-chlorophenyl)-2-(2-pentyn-1-yl)-2H-tetrazole] |  | ≥ 80 | ≥ 80 |  | ≥ 80 | mortality at 50 ppm [2]: ≥ 50%
CCC#CCn1nnc(-c2ccc3occc3c2)n1 [Compound 193, 5-(5-Benzofuranyl)-2-(2-pentyn-1-yl)-2H-tetrazole] | ≥ 50 | ≥ 80 | ≥ 80 | ≥ 80 |  | 
CCC#CCn1nnc(-n2cc(Cl)cn2)n1 [Compound 306] | ≥ 50 | ≥ 80 | ≥ 80 |  | ≥ 80 | 
CCC#CCn1nnc(-c2ccc(Cl)c(F)c2)n1 [Compound 308, 5-(4-Chloro-3-fluorophenyl)-2-(2-pentyn-1-yl)-2H-tetrazole] |  |  |  |  | ≥ 80 | mortality at 50 ppm [2]: ≥ 50%; mortality at 10 ppm ([4]; sprayed at 10 ppm): ≥ 80%; mortality at 50 ppm [5]: ≥ 80%
CCC#CCn1nnc(-c2cc(F)c(F)c(F)c2)n1 [Compound 313, 2-(2-Pentyn-1-yl)-5-(3,4,5-trifluorophenyl)-2H-tetrazole] | ≥ 50 |  |  |  |  | mortality at 10 ppm [3]: ≥ 80%; mortality at 2 ppm [4]: ≥ 80%; mortality at 50 ppm [5]: ≥ 80%
CCC#CCn1nnc(-c2ccc(C(F)(F)F)c(Br)c2)n1 [Compound 325, 5-[3-Bromo-4-(trifluoromethyl)phenyl]-2-(2-pentyn-1-yl)-2H-tetrazole] |  | ≥ 80 |  |  | ≥ 80 | mortality at 50 ppm [2]: ≥ 50%; mortality at 50 ppm [5]: ≥ 80%

Source: US20250002476A1, “AZOLE COMPOUNDS FOR CONTROLLING INVERTEBRATE PESTS” (FMC Corporation, priority 2021, published 2025)
